Data reported in ChEMBL document CHEMBL5303573, “Mapping human microbiome drug metabolism by gut bacteria and their genes” (Nature, 2019).

Assays:
[1] = anaerostipes sp., 12 h, 2 µM
Description: The drug is tested on Anaerostipes sp. strain: fecal isolate for biotransformation. The drug concentrations were measured before and after a 12-h incubation by liquid-chromatography-coupled mass spectrometry (LC–MS)

[2] = segatella copri, 12 h, 2 µM
Description: The drug is tested on Prevotella copri strain: DSM18205 for biotransformation. The drug concentrations were measured before and after a 12-h incubation by liquid-chromatography-coupled mass spectrometry (LC–MS)

[3] = parabacteroides johnsonii, 12 h, 2 µM
Description: The drug is tested on Parabacteroides johnsonii strain: DSM18315 for biotransformation. The drug concentrations were measured before and after a 12-h incubation by liquid-chromatography-coupled mass spectrometry (LC–MS)

[4] = bacteroides thetaiotaomicron, 12 h, 2 µM
Description: The drug is tested on Bacteroides thetaiotaomicron strain: VPI-5482 for biotransformation. The drug concentrations were measured before and after a 12-h incubation by liquid-chromatography-coupled mass spectrometry (LC–MS)

[5] = The drug is tested on Bifidobacterium longum subsp. Infantis strain: CCUG52486 for biotransformation. The drug concentrations were measured before and after a 12-h incubation by liquid-chromatography-coupled mass spectrometry (LC–MS); settings: 2 µM
[6] = The drug is tested on Clostridium scindens strain: ATCC35704 for biotransformation. The drug concentrations were measured before and after a 12-h incubation by liquid-chromatography-coupled mass spectrometry (LC–MS); settings: 2 µM
[7] = bacteroides thetaiotaomicron, 12 h, 2 µM; remark: listed apart in the source
Description: The drug is tested on Bacteroides thetaiotaomicron strain: 3731 for biotransformation. The drug concentrations were measured before and after a 12-h incubation by liquid-chromatography-coupled mass spectrometry (LC–MS)

[8] = The drug is tested on Escherichia coli strain: BW25113 for biotransformation. The drug concentrations were measured before and after a 12-h incubation by liquid-chromatography-coupled mass spectrometry (LC–MS); settings: 2 µM
[9] = The drug is tested on Ruminococcus torques strain: ATCC27756 for biotransformation. The drug concentrations were measured before and after a 12-h incubation by liquid-chromatography-coupled mass spectrometry (LC–MS); format: ADME; design: dose 2 uM, timepoint 0 vs 12 hours; settings: 2 µM
[10] = The drug is tested on Bacteroides pectinophilus strain: ATCC43243 for biotransformation. The drug concentrations were measured before and after a 12-h incubation by liquid-chromatography-coupled mass spectrometry (LC–MS); settings: 2 µM
[11] = The drug is tested on Ruminococcus lactaris strain: ATCC29176 for biotransformation. The drug concentrations were measured before and after a 12-h incubation by liquid-chromatography-coupled mass spectrometry (LC–MS); settings: 2 µM
[12] = The drug is tested on Subdoligranulum variabile strain: DSM15176 for biotransformation. The drug concentrations were measured before and after a 12-h incubation by liquid-chromatography-coupled mass spectrometry (LC–MS); settings: 2 µM
[13] = parabacteroides distasonis, 12 h, 2 µM
Description: The drug is tested on Parabacteroides distasonis strain: ATCC8503 for biotransformation. The drug concentrations were measured before and after a 12-h incubation by liquid-chromatography-coupled mass spectrometry (LC–MS)

[14] = The drug is tested on Bacteroides dorei strain: DSM17855 for biotransformation. The drug concentrations were measured before and after a 12-h incubation by liquid-chromatography-coupled mass spectrometry (LC–MS); settings: phocaeicola dorei, 2 µM
[15] = The drug is tested on Bacteroides finegoldii strain: DSM17565 for biotransformation. The drug concentrations were measured before and after a 12-h incubation by liquid-chromatography-coupled mass spectrometry (LC–MS); settings: 2 µM
[16] = The drug is tested on Eggerthella lenta strain: ATCC25559 for biotransformation. The drug concentrations were measured before and after a 12-h incubation by liquid-chromatography-coupled mass spectrometry (LC–MS); settings: 2 µM
[17] = The drug is tested on Ruminococcus gnavus strain: ATCC29149 for biotransformation. The drug concentrations were measured before and after a 12-h incubation by liquid-chromatography-coupled mass spectrometry (LC–MS); settings: mediterraneibacter gnavus, 2 µM
[18] = bacteroides stercoris, 12 h, 2 µM
Description: The drug is tested on Bacteroides stercoris strain: ATCC43183 for biotransformation. The drug concentrations were measured before and after a 12-h incubation by liquid-chromatography-coupled mass spectrometry (LC–MS)

[19] = The drug is tested on Coprococcus comes strain: ATCC27758 for biotransformation. The drug concentrations were measured before and after a 12-h incubation by liquid-chromatography-coupled mass spectrometry (LC–MS); format: ADME; design: dose 2 uM, timepoint 0 vs 12 hours; settings: 2 µM
[20] = bacteroides fragilis, 12 h, 2 µM
Description: The drug is tested on Bacteroides fragilis strain: 3397 (T10) for biotransformation. The drug concentrations were measured before and after a 12-h incubation by liquid-chromatography-coupled mass spectrometry (LC–MS)

[21] = limosilactobacillus reuteri cf48-3a, 12 h, 2 µM
Description: The drug is tested on Lactobacillus reuteri CF48-3A strain: BEI HM-102 for biotransformation. The drug concentrations were measured before and after a 12-h incubation by liquid-chromatography-coupled mass spectrometry (LC–MS)

[22] = The drug is tested on Collinsella intestinalis strain: DSM13280 for biotransformation. The drug concentrations were measured before and after a 12-h incubation by liquid-chromatography-coupled mass spectrometry (LC–MS); settings: 2 µM
[23] = The drug is tested on Bacteroides uniformis strain: ATCC8492 for biotransformation. The drug concentrations were measured before and after a 12-h incubation by liquid-chromatography-coupled mass spectrometry (LC–MS); settings: 2 µM
[24] = bacteroides intestinalis, 12 h, 2 µM
Description: The drug is tested on Bacteroides intestinalis strain: DSM17393 for biotransformation. The drug concentrations were measured before and after a 12-h incubation by liquid-chromatography-coupled mass spectrometry (LC–MS)

[25] = The drug is tested on Blautia luti strain: DSM14534 for biotransformation. The drug concentrations were measured before and after a 12-h incubation by liquid-chromatography-coupled mass spectrometry (LC–MS); format: ADME; design: dose 2 uM, timepoint 0 vs 12 hours; settings: 2 µM
[26] = The drug is tested on Bacteroides caccae strain: ATCC43185 for biotransformation. The drug concentrations were measured before and after a 12-h incubation by liquid-chromatography-coupled mass spectrometry (LC–MS); settings: 2 µM
[27] = bacteroides fragilis, 12 h, 2 µM; remark: listed apart in the source
Description: The drug is tested on Bacteroides fragilis strain: NCTC 9343 for biotransformation. The drug concentrations were measured before and after a 12-h incubation by liquid-chromatography-coupled mass spectrometry (LC–MS)

[28] = The drug is tested on Clostridium ramosum strain: DSM1402 for biotransformation. The drug concentrations were measured before and after a 12-h incubation by liquid-chromatography-coupled mass spectrometry (LC–MS); settings: thomasclavelia ramosa, 2 µM
[29] = The drug is tested on Anaerotruncus colihominis strain: DSM17241 for biotransformation. The drug concentrations were measured before and after a 12-h incubation by liquid-chromatography-coupled mass spectrometry (LC–MS); settings: 2 µM
[30] = The drug is tested on Eubacterium hallii strain: DSM3353 for biotransformation. The drug concentrations were measured before and after a 12-h incubation by liquid-chromatography-coupled mass spectrometry (LC–MS); settings: anaerobutyricum hallii, 2 µM
[31] = The drug is tested on Clostridium asparagiforme strain: DSM15981 for biotransformation. The drug concentrations were measured before and after a 12-h incubation by liquid-chromatography-coupled mass spectrometry (LC–MS); format: ADME; design: dose 2 uM, timepoint 0 vs 12 hours; settings: enterocloster asparagiformis, 2 µM
[32] = The drug is tested on Bacteroides coprophilus strain: DSM18228 for biotransformation. The drug concentrations were measured before and after a 12-h incubation by liquid-chromatography-coupled mass spectrometry (LC–MS); settings: 2 µM
[33] = The drug is tested on Bacteroides sp. WH2 strain: WH2 for biotransformation. The drug concentrations were measured before and after a 12-h incubation by liquid-chromatography-coupled mass spectrometry (LC–MS); settings: bacteroides sp. wh2, 12 h, 2 µM
[34] = The drug is tested on Clostridium symbiosum strain: ATCC14940 for biotransformation. The drug concentrations were measured before and after a 12-h incubation by liquid-chromatography-coupled mass spectrometry (LC–MS); settings: 2 µM
[35] = enterocloster bolteae, 12 h, 2 µM
Description: The drug is tested on Clostridium bolteae strain: ATCCBAA-613 for biotransformation. The drug concentrations were measured before and after a 12-h incubation by liquid-chromatography-coupled mass spectrometry (LC–MS)

[36] = The drug is tested on Odoribacter splanchnicus strain: fecal isolate for biotransformation. The drug concentrations were measured before and after a 12-h incubation by liquid-chromatography-coupled mass spectrometry (LC–MS); settings: 2 µM
[37] = The drug is tested on Eubacterium ventriosum strain: ATCC27560 for biotransformation. The drug concentrations were measured before and after a 12-h incubation by liquid-chromatography-coupled mass spectrometry (LC–MS); format: ADME; design: dose 2 uM, timepoint 0 vs 12 hours; settings: 2 µM

CC#CCn1c(N2CCC[C@@H](N)C2)nc2c1c(=O)n(Cc1nc(C)c3ccccc3n1)c(=O)n2C [LINAGLIPTIN]
Bacterial Biotransformation [1]: Compound NOT metabolized
Bacterial Biotransformation [2]: Compound metabolized
Bacterial Biotransformation [3]: Compound metabolized
Bacterial Biotransformation [4]: Compound metabolized
Bacterial Biotransformation [5]: Compound NOT metabolized
Bacterial Biotransformation [6]: Compound NOT metabolized
Bacterial Biotransformation [7]: Compound metabolized
Bacterial Biotransformation [8]: Compound NOT metabolized
Bacterial Biotransformation [9]: Compound NOT metabolized
Bacterial Biotransformation [10]: Compound NOT metabolized
Bacterial Biotransformation [11]: Compound NOT metabolized
Bacterial Biotransformation [12]: Compound NOT metabolized
Bacterial Biotransformation [13]: Compound metabolized
Bacterial Biotransformation [14]: Compound metabolized
Bacterial Biotransformation [15]: Compound metabolized
Bacterial Biotransformation [16]: Compound NOT metabolized
Bacterial Biotransformation [17]: Compound NOT metabolized
Bacterial Biotransformation [18]: Compound metabolized
Bacterial Biotransformation [19]: Compound NOT metabolized
Bacterial Biotransformation [20]: Compound metabolized
Bacterial Biotransformation [21]: Compound NOT metabolized
Bacterial Biotransformation [22]: Compound NOT metabolized
Bacterial Biotransformation [23]: Compound metabolized
Bacterial Biotransformation [24]: Compound metabolized
Bacterial Biotransformation [25]: Compound NOT metabolized
Bacterial Biotransformation [26]: Compound metabolized
Bacterial Biotransformation [27]: Compound metabolized
Bacterial Biotransformation [28]: Compound NOT metabolized
Bacterial Biotransformation [29]: Compound NOT metabolized
Bacterial Biotransformation [30]: Compound NOT metabolized
Bacterial Biotransformation [31]: Compound NOT metabolized
Bacterial Biotransformation [32]: Compound metabolized
Bacterial Biotransformation [33]: Compound NOT metabolized
Bacterial Biotransformation [34]: Compound NOT metabolized
Bacterial Biotransformation [35]: Compound NOT metabolized
Bacterial Biotransformation [36]: Compound metabolized
Bacterial Biotransformation [37]: Compound NOT metabolized
